# Like-named read-outs stand apart in the source and are kept apart here.
# Legend:
# In vitro metabolism [1] = type: in vitro ADME, mouse
# humans = conditions: ref WHO, 2010, 2012; cited from earlier work
# In vitro metabolism [2] = conditions: female human
# In vitro metabolism [3] = experiment: In vitro metabolism
# In vitro metabolism [4] = experiment: In vitro metabolism; remark: listed apart in the source
# in vitro [5] = conditions: female, B6129SF1/J, mouse, pH 7.4
# in vitro [6] = conditions: female, human, pH 7.4, Km
# [7] = rat, microsomes
# in vitro [8] = conditions: male, Sprague-Dawley, rat, pH 7.4
# [9] = human
# [10] = mouse, microsomes
# [11] = pregnant relative to naïve female mice
smiles,measurement,setting,value
"c1ccc2c(c1)cc1ccc3cccc4c5ccccc5c2c1c34 [DBC, dibenzo[def,p]chrysene]",Km,"In vitro metabolism [1]; female, B6129SF1/J, mouse, liver microsomes of pregnant (GD17) mice, pH 7.4",3.28 ± 1.38 µM
same,"Tissue level CLINT, MM","In vitro metabolism [1]; pregnant mouse, Michaelis-Menten method (Vmax/Km scaled)",3.81 ± 2.28 ml/min/g tissue
same,"Organism level CLINT, MM","In vitro metabolism [1]; pregnant mouse, Michaelis-Menten method, liver weight 41.8 g per kg body weight",159.43 ± 95.51 ml/min/kg body weight
same,"Tissue level CLINT, t 1/2","In vitro metabolism [1]; pregnant mouse, in vitro half-life method",3.31 ± 1.75 ml/min/g tissue
same,KM reduced in the pregnant animal,In vitro metabolism [1]; [11],51%
same,VMAX reduced in the pregnant animal,In vitro metabolism [1]; [11],35%
same,higher tissue level CLINT in the pregnant animal (Michaelis-Menten regression method),In vitro metabolism [1]; [11],30%
same,tissue level CLINT lower in the pregnant animal (in vitro half-life method),In vitro metabolism [1]; [11],28%
same,IARC classification,humans,Group 2A
same,"Tissue level CLINT, MM",In vitro metabolism [2]; Michaelis-Menten method (Vmax/Km scaled),0.32 ± 0.46 ml/min/g tissue
same,"Organism level CLINT, MM","In vitro metabolism [2]; Michaelis-Menten method, liver weight 25.7 g per kg body weight",8.19 ± 11.73 ml/min/kg body weight
same,"Tissue level CLINT, t 1/2",In vitro metabolism [2]; in vitro half-life method,0.16 ml/min/g tissue
same,"Organism level CLINT, t 1/2","In vitro metabolism [2]; in vitro half-life method, liver weight 25.7 g per kg body weight",4.23 ml/min/kg body weight
same,Vmax,"In vitro metabolism [3]; male rat liver microsomes, Michaelis-Menten regression of substrate depletion",0.167 ± 0.064 nmol/min/mg MSP
same,"Tissue level CLINT, MM","In vitro metabolism [3]; male rat, Michaelis-Menten method (Vmax/Km scaled)",0.69 ± 0.73 ml/min/g tissue
same,"Organism level CLINT, MM","In vitro metabolism [3]; male rat, Michaelis-Menten method, liver weight 36.6 g per kg body weight",25.14 ± 26.85 ml/min/kg body weight
same,"Tissue level CLINT, t 1/2","In vitro metabolism [3]; male rat, in vitro half-life method",1.01 ± 0.30 ml/min/g tissue
same,"Organism level CLINT, t 1/2","In vitro metabolism [3]; male rat, in vitro half-life method, liver weight 36.6 g per kg body weight",37.05 ± 10.96 ml/min/kg body weight
same,Km,"In vitro metabolism [3]; male, Sprague-Dawley, rat, pH 7.4",7.28 ± 4.99 µM
same,Km,"In vitro metabolism [4]; female, B6129SF1/J, mouse, pH 7.4",6.63 ± 1.01 µM
same,Vmax,"In vitro metabolism [4]; naïve mouse liver microsomes, Michaelis-Menten regression of substrate depletion",0.646 ± 0.055 nmol/min/mg MSP
same,"Tissue level CLINT, MM","In vitro metabolism [4]; naïve mouse, Michaelis-Menten method (Vmax/Km scaled)",2.92 ± 0.71 ml/min/g tissue
same,"Organism level CLINT, MM","In vitro metabolism [4]; naïve mouse, Michaelis-Menten method, liver weight 55 g per kg body weight",160.71 ± 38.94 ml/min/kg body weight
same,"Tissue level CLINT, t 1/2","In vitro metabolism [4]; naïve mouse, in vitro half-life method",4.59 ± 0.53 ml/min/g tissue
same,"Organism level CLINT, t 1/2","In vitro metabolism [4]; naïve mouse, in vitro half-life method, liver weight 55 g per kg body weight",252.18 ± 29.26 ml/min/kg body weight
"c1ccc2c(c1)cc1ccc3cccc4ccc2c1c34 [B[a]P, benzo[a]pyrene]",Km,in vitro [5],4.97 ± 1.96 µM
same,Km,in vitro [6],0.73 µM
same,"B[a]P CLINT exceeded DBC CLINT, margin (in vitro half-life method)","[7]; male, Sprague-Dawley, pH 7.4",1.4 fold
same,"CLINT for B[a]P exceeded that of DBC, margin (Michaelis-Menten regressions)","[7]; male, Sprague-Dawley, pH 7.4",2.6 fold
same,"Organism level CLINT, MM",[7],65.90 ± 71.68 ml/min/kg body weight
same,"Organism level CLINT, t 1/2",[7],51.34 ± 22.19 ml/min/kg body weight
same,"Tissue level CLINT, t 1/2",[7],1.40 ± 0.61 ml/min/g tissue
same,Km,in vitro [8],18 ± 12.9 µM
same,KM in male rats exceeded that in female mice,In vitro metabolism [3]; male rat relative to female mouse,3.6 fold
same,"B[a]P CLINT exceeded DBC CLINT, margin (in vitro half-life method)","[9]; female, microsomes, pH 7.4",13.3 fold
same,"CLINT for B[a]P exceeded that of DBC, margin (Michaelis-Menten regressions)","[9]; female, microsomes, pH 7.4",3.3 fold
same,Km,"[9]; female, pH 7.4",0.725 ± 0.581 µM
same,"Organism level CLINT, MM",[9]; microsomes,27.16 ± 29.98 ml/min/kg body weight
same,"Organism level CLINT, t 1/2",[9]; microsomes,54.69 ml/min/kg body weight
same,"Tissue level CLINT, t 1/2",[9]; microsomes,2.13 ml/min/g tissue
same,"B[a]P CLINT exceeded DBC CLINT, margin (in vitro half-life method)","[10]; female, B6129SF1/J, pH 7.4",10.6 fold
same,"CLINT for B[a]P exceeded that of DBC, margin (Michaelis-Menten regressions)","[10]; female, B6129SF1/J, pH 7.4",9.0 fold
same,"Organism level CLINT, MM",[10],1445.2 ± 778.0 ml/min/kg body weight
same,"Organism level CLINT, t 1/2",[10],2699.0 ± 1803.4 ml/min/kg body weight
same,"Tissue level CLINT, t 1/2",[10],48.53 ± 32.79 ml/min/g tissue

# Source: publication PMC4274170 (Toxicology letters, 2014)
